Measured values reported in US4814329A, “Antihyperlipoproteinemic 5-substituted sulfur-containing benzimidazole derivatives” (Richter Gedeon Vegyeszeti Gyar R.T., priority 1985, dated 1989).
pIC50: −log10 of the molar value. Structures can show the parent of a compound that is named as a salt. Where two headings read alike, the source gives them in different places.

Experiments:
[1] = acute toxicity, oral, mice; design: species or system male and female mice; details: mouse, in vivo, observed 14 days
Source text: (§1) The acute toxicity of this compound was examined on male and female mice and rats by oral administration.

[2] = system: rats with the cholesterol diet; assay: in vivo test in rats with the cholesterol diet, 10 day treatments (Table 2); details: rat; for LDL + VLDL percentile change / Serum cholesterol percentile change / triglyceride percentile change / HDL cholesterol percentile change: 10 day treatment
Experimental: […] (Schurr, P. E.; Schultz, J. R., Day, D. E.; Atherosclerosis Drug Discovery Ed.: C. E. Day, Plenum, New York 215 (1976) and Acta Pharm. Hung., 49, 182. (1979) During this time the total cholesterol level of the serum increased with 200-250% compared to the normal level, while the amount of the HDL chloesterol diminished by 45-50%. Groups consisting of six animals were formed. […] Then after a 18 hour starving the animals were bled to death under etheric narcosis on the 8th day. The blood samples were centrifuged and the serum total cholesterol and the HDL cholesterol were determined by Backmann enzymatic test, while the triglyceride concentration of the serum was determined by Van Handel's method (J. Lab.: Clin. Med. 41, 486 (1953). The amount of the LDL+VLDL was measured by manganese precipitation turbidimetrically (Schurr, P. E., Schulz, J. R., Day, C. E.: Atherosclerosis Drug Discovery Ed.: C. E. Day, Plenum Press, New York 215 (1976). The antiaggreagtion activity was measured in vitro on human plasm being rich in thrombocytes by a Chrono-log aggregometer. The aggregation was induced by ADP, adrenaline, collagen and arachidonic acid. […]. The lipidperoxidation was induced by N-ethyl-alenicimide (Arzneimittel-Forschung 29, 981 (1979).
The affect of compound no. 0202479 to the rats with the
cholesterol diet in 10 day treatments

[3] = acute toxicity, oral, rats; design: species or system male and female rats; details: rat, in vivo, observed 14 days
Source text: as §1

[4] = system: washed human thrombocyte suspension; assay: inhibition of lipidperoxidation, thiobarbituric acidic method; assay type: cell-based; details: induced by N-ethyl-alenicimide, read-out: medium inhibiting concentration, lipidperoxidation
Experimental: Whistar hannover male rats weighing 140-160 g were fed for 7 days with a rat fodder supplemented with 1.5% of cholesterol, 0.5% of sodium cholate and 5% of solid fat. […] The blood samples were centrifuged and the serum total cholesterol and the HDL cholesterol were determined by Backmann enzymatic test, while the triglyceride concentration of the serum was determined by Van Handel's method (J. Lab.: Clin. Med. 41, 486 (1953). The amount of the LDL+VLDL was measured by manganese precipitation turbidimetrically (Schurr, P. E., Schulz, J. R., Day, C. E.: Atherosclerosis Drug Discovery Ed.: C. E. Day, Plenum Press, New York 215 (1976). The antiaggreagtion activity was measured in vitro on human plasm being rich in thrombocytes by a Chrono-log aggregometer. The aggregation was induced by ADP, adrenaline, collagen and arachidonic acid. […]

[5] = system: human plasm being rich in thrombocytes; assay: in vitro antiaggregation activity (Chrono-log aggregometer; ADP, adrenaline, collagen, arachidonic acid); assay type: cell-based; details: for inhibition at 250 µM / inhibition at 500 µM / inhibition at 1000 µM: Homo sapiens
Source text: Whistar hannover male rats weighing 140-160 g were fed for 7 days with a rat fodder supplemented with 1.5% of cholesterol, 0.5% of sodium cholate and 5% of solid fat. (Schurr, P. E.; Schultz, J. R., Day, D. E.; Atherosclerosis Drug Discovery Ed.: C. E. Day, Plenum, New York 215 (1976) and Acta Pharm. Hung., 49, 182. (1979) During this time the total cholesterol level of the serum increased with 200-250% compared to the normal level, while the amount of the HDL chloesterol diminished by 45-50%. Groups consisting of six animals were formed. The compounds of the invention were administered orally starting on the fourth day of the addition of the cholesterol fodder and it was continued by the end of the experiments, by the seventh day, in one or two doses. Then after a 18 hour starving the animals were bled to death under etheric narcosis on the 8th day. The blood samples were centrifuged and the serum total cholesterol and the HDL cholesterol were determined by Backmann enzymatic test, while the triglyceride concentration of the serum was determined by Van Handel's method (J. Lab.: Clin. Med. 41, 486 (1953). The amount of the LDL+VLDL was measured by manganese precipitation turbidimetrically (Schurr, P. E., Schulz, J. R., Day, C. E.: Atherosclerosis Drug Discovery Ed.: C. E. Day, Plenum Press, New York 215 (1976). The antiaggreagtion activity was measured in vitro on human plasm being rich in thrombocytes by a Chrono-log aggregometer. The aggregation was induced by ADP, adrenaline, collagen and arachidonic acid. The determination of the inhibition of the lipidperoxidation was carried out by thiobarbituric acidic method with the aid of washed human thrombocyte suspension. The lipidperoxidation was induced by N-ethyl-alenicimide (Arzneimittel-Forschung 29, 981 (1979).

[6] = ADP induced, read-out: Aggregation inhibition, ADP
[7] = adrenaline induced, read-out: Aggregation inhibition, Adrenaline
[8] = collagen induced, read-out: Aggregation inhibition, Collagene

## C=CCSc1nc2ccc(Cc3ccccc3)cc2[nH]1 [compound 0202479, 5-Benzyl-2-(2-propenylthio)-benzimidazole hydrobromide, hydrochloride and base]
[1]
  LD50 at 336 h: 960 mg/kg
[2]
  effectiveness, in words: remarkably effective
[2]; 10.0 mg/kg p.o.
  LDL + VLDL percentile change: -20.8 percentile change
  Serum cholesterol percentile change: -7.8 percentile change
  triglyceride percentile change: -3.1 percentile change
[2]; 10.0 mg/kg p.o., * 0.01 P 0.05
  HDL cholesterol percentile change: +47.7 percentile change
[2]; 30.0 mg/kg p.o.
  HDL cholesterol percentile change: +40.1 percentile change
[2]; 30.0 mg/kg p.o., * 0.01 P 0.05
  Serum cholesterol percentile change: -41.5 percentile change
[2]; 30.0 mg/kg p.o., ** P 0.01
  LDL + VLDL percentile change: -48.5 percentile change
  triglyceride percentile change: -47.7 percentile change
[2]; 100.0 mg/kg p.o.
  Serum cholesterol percentile change: -66.3 percentile change
[2]; 100.0 mg/kg p.o., ** P 0.01
  HDL cholesterol percentile change: +56.1 percentile change
  LDL + VLDL percentile change: -80.5 percentile change
  triglyceride percentile change: -55.8 percentile change
[3]
  LD50 at 336 h: > 2000 mg/kg
[4]
  pIC50: 4.62
[5]; ADP and adrenaline
  inhibition of aggregation caused by ADP and adrenaline, in words: inhibited by the compound-similarly to Clofibrate--in the second phase
[5]; read-out: inhibition of aggregation induced by arachidonic acid
  inhibition at 250 µM: 100%
[5]; [6]
  inhibition at 250 µM: 20%
  inhibition at 500 µM: 59%
  inhibition at 1000 µM: 66%
[5]; [7]
  inhibition at 250 µM: 9%
  inhibition at 500 µM: 16%
  inhibition at 1000 µM: 73%
[5]; arachidonic acid induced, read-out: Aggregation inhibition, Arachidonic acid
  inhibition at 250 µM: 100%
[5]; [8]
  inhibition at 250 µM: 6%
  inhibition at 500 µM: 16%
  inhibition at 1000 µM: 39%
